Test results published in patent US20230116972A1, “CD38 MODULATORS AND METHODS OF USE THEREOF” (Cytokinetics, Inc., priority 2021, published 2023).
Like-named read-outs stand apart in the source and are kept apart here.

How the values were obtained:
CYP2B6 = molecular target: T1, CYP2B6 (Homo sapiens, UniProt P20813); test: direct inhibition of CYP450 in human liver microsomes; format: in vitro ADME
T1 construct: from tissue; host or cells: human liver microsomes (pooled in the time-dependent assay)
T1 sequence (P20813 1-491): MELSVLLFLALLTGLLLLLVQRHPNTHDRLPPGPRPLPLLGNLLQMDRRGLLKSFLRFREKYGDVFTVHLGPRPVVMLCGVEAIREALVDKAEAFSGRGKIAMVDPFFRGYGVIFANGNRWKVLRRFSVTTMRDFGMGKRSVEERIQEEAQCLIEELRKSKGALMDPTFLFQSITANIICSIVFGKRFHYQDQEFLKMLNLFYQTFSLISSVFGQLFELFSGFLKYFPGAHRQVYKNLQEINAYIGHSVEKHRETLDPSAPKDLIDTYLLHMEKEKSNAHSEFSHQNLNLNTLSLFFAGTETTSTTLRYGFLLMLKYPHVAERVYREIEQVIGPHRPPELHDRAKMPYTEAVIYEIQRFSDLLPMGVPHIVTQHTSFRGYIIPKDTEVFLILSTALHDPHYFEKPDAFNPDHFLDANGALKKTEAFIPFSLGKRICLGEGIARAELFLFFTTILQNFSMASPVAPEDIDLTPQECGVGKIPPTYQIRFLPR
Protocol: (§1) Direct inhibition: […] A Perspective of the Pharmaceutical Research and Manufacturers of America”, Drug Metabolism and Disposition, 37 (7): 1355, 2009). For 3A4, the % activity was measured using both midazolam and testosterone as probes. Each compound at 3, 10, and 50 μM was incubated with HLM, NADPH and CYP isoenzyme specific probe substrates at 37° C. Inhibition of the probe substrate metabolism was quantified using LC/MS/MS. […] Known chemical inhibitors specific for the individual CYP isoenzymes were evaluated in parallel as positive controls and these compounds produced CYP inhibition consistent with published results (Walsky & Obach RS. “Validated assays for human cytochrome P450 activities”. Drug Metab Dispos. 32(6):647-60, 2004). Note that, in Tables 6 and 7, the “Compound No” corresponds to the compound numbers in Table 1.

CYP2C9 = molecular target: T2, CYP2C9 (Homo sapiens, UniProt P11712); test: as above; format: in vitro ADME
T2 construct: from tissue; host or cells: human liver microsomes (pooled in the time-dependent assay)
T2 sequence (P11712 whole entry): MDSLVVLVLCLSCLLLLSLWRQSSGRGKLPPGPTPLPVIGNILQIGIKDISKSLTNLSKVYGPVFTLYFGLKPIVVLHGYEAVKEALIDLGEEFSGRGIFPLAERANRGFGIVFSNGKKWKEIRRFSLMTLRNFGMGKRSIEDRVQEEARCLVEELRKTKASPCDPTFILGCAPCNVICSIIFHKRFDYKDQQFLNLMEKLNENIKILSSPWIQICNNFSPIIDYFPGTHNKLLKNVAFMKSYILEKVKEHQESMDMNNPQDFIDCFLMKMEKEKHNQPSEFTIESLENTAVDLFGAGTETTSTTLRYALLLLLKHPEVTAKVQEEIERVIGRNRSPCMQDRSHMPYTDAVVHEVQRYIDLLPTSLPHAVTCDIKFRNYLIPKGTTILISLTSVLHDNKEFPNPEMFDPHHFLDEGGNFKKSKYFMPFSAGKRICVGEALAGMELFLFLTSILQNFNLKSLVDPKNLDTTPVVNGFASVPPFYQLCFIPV
Protocol: as §1

CYP1A2 = molecular target: T3, CYP1A2 (Homo sapiens, UniProt P05177); test: as above; format: in vitro ADME; settings: human liver microsomes
T3 construct: from tissue; host or cells: human liver microsomes (pooled in the time-dependent assay)
T3 sequence (P05177 1-516): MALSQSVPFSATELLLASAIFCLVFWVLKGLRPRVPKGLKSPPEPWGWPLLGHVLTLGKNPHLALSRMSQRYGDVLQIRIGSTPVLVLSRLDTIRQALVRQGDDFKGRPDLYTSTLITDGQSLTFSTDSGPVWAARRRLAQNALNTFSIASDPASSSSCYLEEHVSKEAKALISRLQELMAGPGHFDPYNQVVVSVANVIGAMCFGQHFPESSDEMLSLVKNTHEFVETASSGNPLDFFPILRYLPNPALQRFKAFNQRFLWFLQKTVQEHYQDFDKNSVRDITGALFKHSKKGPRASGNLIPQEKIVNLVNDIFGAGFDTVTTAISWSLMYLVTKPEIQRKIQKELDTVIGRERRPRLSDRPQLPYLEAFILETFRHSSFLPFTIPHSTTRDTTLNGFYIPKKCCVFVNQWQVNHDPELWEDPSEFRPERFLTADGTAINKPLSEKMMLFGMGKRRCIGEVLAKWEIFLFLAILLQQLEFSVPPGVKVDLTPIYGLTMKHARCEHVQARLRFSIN
Protocol: as §1

CYP2C19 = molecular target: T4, CYP2C19 (Homo sapiens, UniProt P33261); test: as above; format: in vitro ADME
T4 construct: from tissue; host or cells: human liver microsomes (pooled in the time-dependent assay)
T4 sequence (P33261 whole entry): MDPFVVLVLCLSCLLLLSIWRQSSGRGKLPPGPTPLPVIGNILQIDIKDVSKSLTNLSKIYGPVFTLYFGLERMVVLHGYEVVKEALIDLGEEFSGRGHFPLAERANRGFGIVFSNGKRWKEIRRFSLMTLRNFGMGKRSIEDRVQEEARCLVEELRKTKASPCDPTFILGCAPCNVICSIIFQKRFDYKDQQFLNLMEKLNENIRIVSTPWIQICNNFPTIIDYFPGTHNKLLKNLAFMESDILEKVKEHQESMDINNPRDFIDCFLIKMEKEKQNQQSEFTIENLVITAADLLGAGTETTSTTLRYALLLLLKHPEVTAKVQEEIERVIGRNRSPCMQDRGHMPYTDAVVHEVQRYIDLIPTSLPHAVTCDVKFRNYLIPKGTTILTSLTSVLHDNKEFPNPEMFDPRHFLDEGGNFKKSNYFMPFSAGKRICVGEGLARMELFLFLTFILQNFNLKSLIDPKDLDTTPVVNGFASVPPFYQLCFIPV
Protocol: as §1

CYP3A4 = molecular target: T5, CYP3A4 (Homo sapiens, UniProt P08684); test: direct inhibition of CYP450 in human liver microsomes (midazolam and testosterone probes); format: in vitro ADME
T5 construct: from tissue; host or cells: human liver microsomes (pooled in the time-dependent assay)
T5 sequence (P08684 whole entry): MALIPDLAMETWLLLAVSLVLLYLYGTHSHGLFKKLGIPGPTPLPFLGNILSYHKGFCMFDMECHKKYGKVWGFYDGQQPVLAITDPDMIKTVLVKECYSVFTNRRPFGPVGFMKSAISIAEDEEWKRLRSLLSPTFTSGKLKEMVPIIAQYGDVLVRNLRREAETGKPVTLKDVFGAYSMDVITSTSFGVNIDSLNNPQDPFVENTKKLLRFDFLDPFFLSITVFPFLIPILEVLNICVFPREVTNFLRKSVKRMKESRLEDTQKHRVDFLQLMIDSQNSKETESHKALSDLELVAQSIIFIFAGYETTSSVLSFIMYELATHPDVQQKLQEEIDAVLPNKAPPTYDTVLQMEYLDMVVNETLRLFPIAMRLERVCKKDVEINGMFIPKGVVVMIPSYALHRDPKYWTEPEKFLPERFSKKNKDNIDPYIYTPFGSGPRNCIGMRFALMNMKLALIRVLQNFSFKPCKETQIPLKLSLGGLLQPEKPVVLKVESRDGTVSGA
Protocol: as §1

[1] = molecular target: T6, endogenous CD38 in HL60 cells (Homo sapiens, UniProt P28907); test: cellular CD38 assay in HL60 cells (cellular NAD levels); format: cell-based; settings: all-trans retinoic acid, 24 hours, read-out: hCD38 HL60 ATRA NAD Cell Diaphorase IC50
T6 construct: endogenous in cells; host or cells: HL60 (leukemic cells, treated with all-trans retinoic acid)
T6 sequence (P28907 1-300): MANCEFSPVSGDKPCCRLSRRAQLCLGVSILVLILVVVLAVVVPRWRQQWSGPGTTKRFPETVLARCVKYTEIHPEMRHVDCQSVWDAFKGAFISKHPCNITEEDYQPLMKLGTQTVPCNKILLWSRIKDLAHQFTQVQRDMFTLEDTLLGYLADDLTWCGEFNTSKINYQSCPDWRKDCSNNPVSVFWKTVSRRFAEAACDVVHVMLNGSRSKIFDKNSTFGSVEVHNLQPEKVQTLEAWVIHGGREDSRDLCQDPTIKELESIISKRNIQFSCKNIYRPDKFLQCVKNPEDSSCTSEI
Summary of the method: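 Endogenous CD38 inhibition is inferred from NAD levels in HL60 cells after 24 h compound exposure at 20000 cells per well. A lytic cycling readout (0.2 U/mL diaphorase, 0.8 U/mL alcohol dehydrogenase, resazurin, FMN, ethanol, 0.2% Triton X-100, Tris/EDTA pH 8.4) ran 60 min at ambient temperature. Resorufin fluorescence was read at 540/590 nm.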

[2] = midazolam probe, read-out: CYP3A4-M T0 % activity
[3] = testosterone probe, read-out: CYP3A4-T T0 % activity

**Q.** Which activity at 3 µM (CYP2B6; 3 uM, % of non-inhibited control, read-out: CYP2B6 T0 % activity) does the source give for `CO[C@H]1CC[C@H](NC(=O)c2cc(C3CCC(F)(F)CC3)nc(-c3cncn3C)n2)CC1` [Compound 289, 6-(4,4-difluorocyclohexyl)-N-((1r,4r)-4-methoxycyclohexyl)-2-(1-methyl-1H-imidazol-5-yl)pyrimidine-4-carboxamide] here?
**A.** The activity at 3 µM was 98%.

**Q.** And the activity at 10 µM (CYP2B6; 10 uM, % of non-inhibited control, read-out: CYP2B6 T0 % activity)?
**A.** The activity at 10 µM was 95%.

**Q.** And the activity at 50 µM (CYP2B6; 50 uM, % of non-inhibited control, read-out: CYP2B6 T0 % activity)?
**A.** The activity at 50 µM was 79%.

**Q.** And the IC50 (CYP2B6; estimated from 3, 10, 50 uM, read-out: CYP2B6 T0 estimated IC50)?
**A.** Its IC50 is greater than 50 µM.

**Q.** What about the activity at 3 µM (CYP2C9; 3 uM, % of non-inhibited control, read-out: CYP2C9 T0 % activity) of the same compound?
**A.** The activity at 3 µM was 96%.

**Q.** What about the activity at 10 µM (CYP2C9; 10 uM, % of non-inhibited control, read-out: CYP2C9 T0 % activity) of the same compound?
**A.** The activity at 10 µM was 81%.

**Q.** And the activity at 50 µM (CYP2C9; 50 uM, % of non-inhibited control, read-out: CYP2C9 T0 % activity)?
**A.** The activity at 50 µM was 49%.

**Q.** What about the IC50 (CYP2C9; estimated from 3, 10, 50 uM, read-out: CYP2C9 T0 estimated IC50) of the same compound?
**A.** The IC50 was less than 50 µM.

**Q.** What about the activity at 3 µM (CYP1A2; 3 uM, % of non-inhibited control, read-out: CYP1A2 T0 % activity) of the same compound?
**A.** The activity at 3 µM was 100%.

**Q.** And the activity at 10 µM (CYP1A2; 10 uM, % of non-inhibited control, read-out: CYP1A2 T0 % activity)?
**A.** Its activity at 10 µM is 95%.

**Q.** What about the activity at 50 µM (CYP1A2; 50 uM, % of non-inhibited control, read-out: CYP1A2 T0 % activity) of the same compound?
**A.** The activity at 50 µM was 81%.

**Q.** And the IC50 (CYP1A2; estimated from 3, 10, 50 uM, read-out: CYP1A2 T0 estimated IC50)?
**A.** Its IC50 is greater than 50 µM.

**Q.** What about the activity at 3 µM (CYP2C19; 3 uM, % of non-inhibited control, read-out: CYP2C19 T0 % activity) of the same compound?
**A.** Its activity at 3 µM is 83%.

**Q.** What about the activity at 10 µM (CYP2C19; 10 uM, % of non-inhibited control, read-out: CYP2C19 T0 % activity) of the same compound?
**A.** The activity at 10 µM was 63%.

**Q.** What about the activity at 50 µM (CYP2C19; 50 uM, % of non-inhibited control, read-out: CYP2C19 T0 % activity) of the same compound?
**A.** Its activity at 50 µM is 23%.

**Q.** What about the IC50 (CYP2C19; estimated from 3, 10, 50 uM, read-out: CYP2C19 T0 estimated IC50) of the same compound?
**A.** Its IC50 is less than 50 µM.

**Q.** What about the activity at 3 µM (CYP3A4; [2]) of the same compound?
**A.** Its activity at 3 µM is 147%.

**Q.** And the activity at 3 µM (CYP3A4; [3])?
**A.** The activity at 3 µM was 100%.

**Q.** And the activity at 10 µM (CYP3A4; [2])?
**A.** The activity at 10 µM was 148%.

**Q.** And the activity at 10 µM (CYP3A4; [3])?
**A.** Its activity at 10 µM is 97%.

**Q.** And the activity at 50 µM (CYP3A4; [2])?
**A.** Its activity at 50 µM is 96%.

**Q.** What about the activity at 50 µM (CYP3A4; [3]) of the same compound?
**A.** Its activity at 50 µM is 72%.

**Q.** What about the IC50 (CYP3A4; midazolam probe, read-out: CYP3A4-M T0 estimated IC50) of the same compound?
**A.** Its IC50 is greater than 50 µM.

**Q.** And the IC50 (CYP3A4; testosterone probe, read-out: CYP3A4-T T0 estimated IC50)?
**A.** The IC50 was greater than 50 µM.

**Q.** What about the IC50 [1] of the same compound?
**A.** Its IC50 is 1.9 µM.
